Assay [1] deals with Mus musculus. As to the kind of experiment: Antinociceptive activity in Swiss mouse assessed as inhibition of acetic acid-induced abdominal constriction at 30 mg/kg administered 30 to 60 mins prior to acetic acid challenge measured over 20 mins by writhing test. Type of assay: functional, Abdomen. (Writhing tests count abdominal constrictions after an irritant is injected.)
Assay [2] relates to Mus musculus. As to the kind of experiment: Antinociceptive activity in Swiss mouse assessed as inhibition of acetic acid-induced abdominal constriction administered 30 to 60 mins prior to acetic acid challenge measured over 20 mins by writhing test. Type of assay: functional. The note with it: Abdomen; for ED50: read-out: ID50 (the source's name).
The test system of assay [3] is Mus musculus. Put plainly: Antinociceptive activity in Swiss mouse assessed as inhibition of acetic acid-induced abdominal constriction at 10 mg/kg administered 30 to 60 mins prior to acetic acid challenge measured over 20 mins by writhing test. Type of assay: functional, Abdomen.

On to `O=C(CC1OC(=O)c2ccccc21)c1ccc(Cl)c(Cl)c1` (configuration not stated), for which the Imax in the assay with Mus musculus [1] is listed as 90.7%. The ED50 with Mus musculus [2] was found to be 34.6 µmol/kg.

Regarding `O=C(CC1OC(=O)c2ccccc21)c1ccc(Cl)cc1` (configuration not stated), the Imax in the assay on Mus musculus [1] was 97.7%. Also, in the assay with Mus musculus [2], the inhibition entry was “Dose-dependent effect” and the ED50 was 33.7 µmol/kg. Moreover, in the assay with Mus musculus [3], the Imax is given as 73.5%.

Turning to `COc1ccc(C(=O)CC2OC(=O)c3ccccc32)cc1OC` (configuration not stated), in the assay with Mus musculus [3], the Imax came to 49.4%.

Values taken from ChEMBL document CHEMBL2163320, “Benzofuranones as potential antinociceptive agents: structure-activity relationships” (2012).
